Test results from patent publication US5854004A, “Process for screening substances capable of modulating a receptor-dependent cellular signal transmission path” (Boehringer Ingleheim GmbH, priority 1991, dated 1998).
Entries after “also recorded” stand apart in the source; their conditions may differ.

Legend:
A549 cells [1] = settings: Voraberger et al., 1991; cited from earlier work
COS-7 cells = assay: Induction of TRE-sensor-DNA (luciferase) in transiently transfected pretest cells, COS-7; settings: COS-7
Procedure: (§1) Approximately 1×10^7 cells per transfection were detached from the surface of the culture dish using trypsin and centrifuged for 5 minutes at 1200 rpm at ambient temperature (Heraeus Minifuge), washed once with 5 ml of serum-free medium, centrifuged for 5 minutes at 1200 rpm and suspended in 1 ml of serum-free medium. Then the cells were mixed with 250 μg/ml DEAE-dextrane, 5 μg plasmid DNA and 50 μg/ml chloroquin, incubated for 30 minutes at 37° C., washed once with medium containing no FCS and incubated overnight at 37° C. with 10 ml of fresh serum-containing medium. Then the medium was changed and after 4 hours the cells were induced, either with 10 ng TPA/ml medium or with 20 μM forskolin. […] The cells were lysed by the addition of 100 μl lysing buffer (1% Triton X-100, 25 mM glycylglycine pH 7.8, 15 mM MgSO4, 4 mM EDTA and 1 mM […]), the lysate was centrifuged for 5 minutes and the supernatant was transferred into a fresh test tube. […] The measuring time for light emission was 10 seconds.
(§2) The cell lines A549, HeLa and COS-7 were transiently transfected as described above by the addition of plasmid pBHluc1.3 and induced by the addition of TPA. Cells which were only transfected but not induced were used as a negative control.
(§3) The cell lines A549, HeLa and COS-7 were transiently transfected by the addition of plasmid pADneo(3TRE)BGluci and induced by the addition of TPA or forskolin. Once again, cells which were only transfected but not induced were used as a negative control.
(§4) The cell lines COS-7 and A549 were transiently transfected by the addition of plasmid pADneo(3×TREd16)BGluci, pADneo(3×TREd21)BGluci, pADneo(3×TREd24)BGluci, pADneo(3×TREd34)BGluci, pADneo(6×TREd16)BGluci, pADneo(6×TREd21)BGluci, pADneo(6×TREd24)BGluci or pADneo(6×TREd34)BGluci and induced by the addition of TPA or forskolin.

[2] = target: T1, human neurokinin 2-receptor (Homo sapiens, UniProt P21452); assay: Luciferase activity in NK2-test cell line A20/NK2-122; settings: A20/NK2-122
T1 sequence (P21452 1-398): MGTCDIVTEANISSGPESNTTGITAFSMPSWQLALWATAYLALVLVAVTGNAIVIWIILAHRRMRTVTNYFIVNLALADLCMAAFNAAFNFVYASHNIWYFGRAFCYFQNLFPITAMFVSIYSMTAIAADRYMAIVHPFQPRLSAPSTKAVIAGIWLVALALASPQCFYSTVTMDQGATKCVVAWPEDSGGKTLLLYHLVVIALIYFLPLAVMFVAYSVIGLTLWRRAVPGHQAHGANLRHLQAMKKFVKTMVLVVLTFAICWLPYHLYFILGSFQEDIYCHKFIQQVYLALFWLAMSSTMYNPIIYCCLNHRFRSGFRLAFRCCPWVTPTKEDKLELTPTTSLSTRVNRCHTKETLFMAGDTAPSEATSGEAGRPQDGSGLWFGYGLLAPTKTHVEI
Procedure: (§5) 15-20 days after transfection, individual cell clones were transferred into 96-well microtitre plates and further cultivated. […] Approximately 40,000 cells in each clone were sown, in a procedure repeated 6 times, in 200 μl per well of a light-impervious 96-well microtitre plate coated with tissue culture (Microlite™, Dynatech Laboratories) and incubated overnight at 37° C. Three mixtures were treated with 10 ng TPA/ml and incubated for a further 8 hours. Then the medium was removed and the cells were washed twice with PBS.
This Example illustrates the preparation of a test cell line for the human neurokinin 2 (NK2)-receptor which is coupled to the phospholipase C-signal transduction pathway. This test cell line makes it possible, by measurement of the luciferase activity, to identify substances which modulate the intracellular IP3 /DAG concentrations, depending on the receptor.
(§6) The pretest cell line A20 was transfected, as described under a), by electroporation with the plasmid pAHyg-NK2, which had previously been linearised with BglII. From the day after transfection onwards, the cells were grown in selection medium, as used for the cell line A20 and additionally enriched with 150 μg/ml hygromycin B (Sigma). Individual clones were tested for inducibility of the luciferase activity as described under a).

human 5HT2-receptor = human 5HT2-receptor (Homo sapiens, UniProt P28223); assay: Induction of pADneo2-C6-BGL (CRE) via 5-HT2-receptor in co-transfected COS-7 cells; type: cell-based; settings: 20 μM forskolin or 10 μ α-methylserotonin-maleate
Procedure: Induction was carried out with i) 20 μM forskolin (Sigma P8139), ii) 10 μα-methylserotonin-maleate (RBI M-110), and iii) 10 μα-methylserotonin-maleate and 10 μM ketanserin-tartrate (RBI S-006). […] It follows, from the above results, that, depending on 5-HT2 -receptors, only regulation elements which respond to IP3 /DAG (TRE), but not regulation elements which respond to cAMP (CRE) are selectively activated.

cell line A20 = assay: Luciferase induction in stable TRE-pretest cell line A20 (A549, pBHluc1.3); settings: A20
Procedure: In order to produce a stable (pre-)test cell line for substances which influence the expression of the luciferase gene by direct or receptor-mediated modulation of the IP3 /DAC-signal transduction pathway, A549 cells were simultaneously transfected with the plasmid pBHluc1.3 and the selection plasmid pRSVneo by electroporation as follows: after removal of the medium the cells were detached from the surface by means of a trypsin/PBS solution, suspended in medium and sedimented for 5 minutes at 250×g. […] 0.8 ml of cell suspension were combined with 20 μg of pBHluc1.3 and 2 μg of pRSVneo. Both plasmids had previously been linearised with BamHI.
as §5, §6

cell line CHO C6-13 = assay: Luciferase expression in CRE-pretest cell line CHO C6-13
Procedure: The transfection by electroporation was carried out as follows: after removal of the medium the cells were detached from the surface by means of a trypsin/PBS solution, suspended in medium and pelleted for 5 minutes at 250×g. The cells were washed in HBS (10 mM HEPES pH 7.4, 150 mM NaCl) and pelleted by centrifuging. The cells were suspended in HBS in a density of 1×10^7 cells/ml. 0.8 ml of cell suspension were mixed with 20 μg of DNA of the plasmid pADneo2-C6-BGL linearised with ScaI and transferred into an electroporation dish. […] After the electroporation the cells were diluted in the medium mentioned above, 20,000 cells per 90 mm culture dish was sown and incubated overnight at 37° C.
Two batches of each were treated with 20 μM forskolin and incubated for a further 5 hours at 37° C. Then the medium was removed from all the cells and the cells were washed with PBS.
Cells of the cell line CHO C6-13 were treated for 3 hours with various substances which alter the intracellular concentration of cAMP or IP3 /DAG or simulate a change in concentration, and also treated with receptor-specific agonists which influence the above-mentioned signal transduction mechanisms.

[3] = target: human dopamine D1-receptor (Homo sapiens, UniProt P21728); assay: Induction of pADneo2-C6-BGL (CRE) via dopamine-D1-receptor in co-transfected COS-7 cells; settings: COS-7; 20 μM forskolin or 1 μM apomorphine, 18 h
A549 cells [4] = assay: Induction of TRE-sensor-DNA (luciferase) in transiently transfected pretest cells, A549; settings: A549
Procedure: as §1, §2, §3, §4

CHO C12-32 = assay: Luciferase inducibility in CRE-pretest cell clone C12-32; type: cell-based, Chinese hamster; settings: 20 μM forskolin, 5 hours
Procedure: (This plasmid differs from the pADneo2-C6-BGL described in Example 1) in that the section containing the 6 CRE-elements is duplicated and the β-globin promotor is replaced by the TK-promotor (see Example 1 b)). In order to do this the SalI-HindIII-β-globin-promotor-fragment was replaced by a similarly cut fragment containing the TK-promotor (McKnight, 1980)).
The transfection and testing of the cell clones were carried out as in Example 7 a).

HeLa cells = assay: Induction of TRE-sensor-DNA (luciferase) in transiently transfected pretest cells, HeLa; settings: 10 ng TPA/ml or 20 μM forskolin, 18 h
Procedure: as §1, §2, §3

[5] = 10 ng TPA/ml or 20 μM forskolin, 18 h

human 5HT2-receptor, sequence (P28223 whole entry): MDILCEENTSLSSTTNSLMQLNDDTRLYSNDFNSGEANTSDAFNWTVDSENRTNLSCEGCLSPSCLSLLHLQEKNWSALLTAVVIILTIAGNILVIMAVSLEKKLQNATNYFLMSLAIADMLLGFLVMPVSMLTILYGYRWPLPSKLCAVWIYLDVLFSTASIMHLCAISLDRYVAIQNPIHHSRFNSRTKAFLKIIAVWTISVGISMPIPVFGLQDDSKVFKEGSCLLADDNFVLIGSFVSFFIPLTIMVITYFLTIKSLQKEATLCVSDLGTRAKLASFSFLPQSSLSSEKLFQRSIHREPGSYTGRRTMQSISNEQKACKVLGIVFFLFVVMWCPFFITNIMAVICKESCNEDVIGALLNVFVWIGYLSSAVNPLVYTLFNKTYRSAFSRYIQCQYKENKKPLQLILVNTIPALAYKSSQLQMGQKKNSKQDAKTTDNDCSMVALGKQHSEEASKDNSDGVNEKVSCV
human dopamine D1-receptor, sequence (P21728 whole entry): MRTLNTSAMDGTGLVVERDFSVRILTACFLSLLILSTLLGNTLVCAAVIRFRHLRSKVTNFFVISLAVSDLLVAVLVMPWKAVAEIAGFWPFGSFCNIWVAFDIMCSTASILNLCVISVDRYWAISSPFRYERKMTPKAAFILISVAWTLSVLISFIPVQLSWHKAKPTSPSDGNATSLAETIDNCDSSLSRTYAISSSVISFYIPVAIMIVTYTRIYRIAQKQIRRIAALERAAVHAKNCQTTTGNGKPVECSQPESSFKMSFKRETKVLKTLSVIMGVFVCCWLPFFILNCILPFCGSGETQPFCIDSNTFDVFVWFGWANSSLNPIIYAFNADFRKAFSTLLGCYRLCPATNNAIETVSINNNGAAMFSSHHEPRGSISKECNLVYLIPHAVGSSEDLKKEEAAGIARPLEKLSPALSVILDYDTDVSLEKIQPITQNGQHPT

SMILES: C=C[C@@]1(C)CC(=O)[C@]2(O)[C@@]3(C)[C@@H](O)CCC(C)(C)[C@@H]3[C@H](O)[C@H](OC(C)=O)[C@@]2(C)O1 [forskolin]
- induction of 1.3 kb ICAM-1 fragment / pBHluc1.3 (A549 cells [1]): cannot be activated by forskolin; also recorded: cannot be induced by forskolin
- induction of pADneo(3TRE)BGluci (COS-7 cells; [5]): not by forskolin
- induction of pBHluc1.3 by TPA or forskolin (COS-7 cells; [5]): not by forskolin
- induction of pADneo(nTREdx)BGluci by forskolin (COS-7 cells; 20 μM forskolin): none of the constructions can be induced with forskolin
- induction of luciferase activity by forskolin [2]: did not result in any induction of luciferase activity
- induction of luciferase expression (CRE) (human 5HT2-receptor): induced by forskolin
- induction of luciferase activity by forskolin (cell line A20): did not result in any induction of luciferase activity
- inducibility of luciferase by forskolin, clone C6-13 (cell line CHO C6-13; 20 μM forskolin, 5 hours): very high inducibility
- change in luciferase expression/activity (cell line CHO C6-13; 3 hours treatment, FIG. 33): increased
- luciferase induction at concentrations higher than 20 μM (attributed to toxic effects or excessively high cAMP level) (cell line CHO C6-13; > 20 μM forskolin): drop in luciferase induction at even higher concentrations
- EC100 (cell line CHO C6-13; Cricetulus griseus, read-out: concentration of maximum induction of the luciferase reporter gene): 20 µM
- time up to which induction does not change (cell line CHO C6-13; after forskolin stimulation): 4 h
- time after stimulation at which increased luciferase activity can be detected (cell line CHO C6-13; forskolin, FIG. 35A): 60 min
- time to total induction of luciferase expression (cell line CHO C6-13; forskolin, FIG. 35A): 2.5 h
- dependency of ED50 levels on duration of treatment (cell line CHO C6-13; forskolin, FIG. 35B): virtually unaffected
- induction of luciferase expression (CRE) [3]: induced by forskolin and by apomorphine
- induction of pADneo(3TRE)BGluci (A549 cells [4]; [5]): not by forskolin
- induction of pADneo(nTREdx)BGluci by forskolin (A549 cells [4]; 20 μM forskolin): none of the constructions can be induced with forskolin
- inducibility of luciferase by forskolin, clone C12-32 (CHO C12-32): very high inducibility
- induction of pADneo(3TRE)BGluci (HeLa cells): not by forskolin
- induction of pBHluc1.3 by TPA or forskolin (HeLa cells): not by forskolin
